According to ChEMBL document CHEMBL4020734, “Identification of a novel fluoropyrrole derivative as a potassium-competitive acid blocker with long duration of action” (Bioorg Med Chem, 2017):
Calls of active or inactive are those of the source. No cut-off for these calls is given here.

Legend:
[1] = Lipophilicity, log D of the compound at pH 7.4 by HPLC analysis; format: physicochemical; details: buffer
[2] = Inhibition of H+/K+-ATPase in porcine stomach gastric mucosal microsomes assessed as reduction in inorganic phosphate production using ATP as substrate preincubated for 30 mins followed by ATP addition in presence of KCl by malachite green reagent based colorimetric assay; design: species or system Sus scrofa
Rattus norvegicus [3] = test: Inhibition of histamine-induced acid secretion in Jcl:SD rat gastric at 1 mg/kg, iv pretreated for 3 mins followed by histamine.2HCl treatment measured after 3 hrs by titration method; format: functional
hERG (KCNH2) = hERG (KCNH2) (Homo sapiens, UniProt Q12809); test: Inhibition of human ERG expressed in HEK cells at 10 uM at -75 mV holding potential by Whole-cell voltage clamp assay relative to control; format: cell-based; details: HEK cells expressing human ERG
Sequence of hERG (KCNH2) (Q12809 whole entry): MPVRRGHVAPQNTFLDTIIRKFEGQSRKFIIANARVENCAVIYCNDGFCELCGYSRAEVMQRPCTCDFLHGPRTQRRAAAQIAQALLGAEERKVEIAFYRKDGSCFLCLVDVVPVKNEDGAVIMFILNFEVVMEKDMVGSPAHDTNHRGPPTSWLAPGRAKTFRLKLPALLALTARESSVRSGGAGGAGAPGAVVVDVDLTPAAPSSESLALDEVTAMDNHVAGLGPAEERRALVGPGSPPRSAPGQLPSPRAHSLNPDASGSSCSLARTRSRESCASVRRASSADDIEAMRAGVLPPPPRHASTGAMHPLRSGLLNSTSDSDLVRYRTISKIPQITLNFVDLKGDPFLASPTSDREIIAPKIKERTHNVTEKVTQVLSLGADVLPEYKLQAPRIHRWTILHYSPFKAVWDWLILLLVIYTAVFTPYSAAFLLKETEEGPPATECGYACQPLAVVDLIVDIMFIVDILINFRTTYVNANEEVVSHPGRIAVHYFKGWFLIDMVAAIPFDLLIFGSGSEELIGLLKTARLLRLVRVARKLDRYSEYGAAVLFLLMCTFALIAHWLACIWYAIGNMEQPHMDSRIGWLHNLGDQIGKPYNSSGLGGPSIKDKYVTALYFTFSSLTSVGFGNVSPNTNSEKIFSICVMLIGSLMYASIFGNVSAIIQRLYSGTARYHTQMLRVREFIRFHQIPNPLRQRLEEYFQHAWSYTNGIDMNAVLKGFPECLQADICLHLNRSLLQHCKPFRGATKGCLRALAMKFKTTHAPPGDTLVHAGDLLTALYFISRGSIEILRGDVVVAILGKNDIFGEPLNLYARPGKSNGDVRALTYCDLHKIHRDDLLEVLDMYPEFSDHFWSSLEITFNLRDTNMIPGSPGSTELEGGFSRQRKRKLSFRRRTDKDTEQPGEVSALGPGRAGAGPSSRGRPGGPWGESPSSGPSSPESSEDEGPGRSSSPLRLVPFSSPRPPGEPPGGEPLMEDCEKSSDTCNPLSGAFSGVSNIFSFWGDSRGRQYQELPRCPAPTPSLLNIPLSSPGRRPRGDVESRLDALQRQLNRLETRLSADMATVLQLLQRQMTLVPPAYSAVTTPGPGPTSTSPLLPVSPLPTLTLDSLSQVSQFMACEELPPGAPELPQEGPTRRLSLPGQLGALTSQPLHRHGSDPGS

[4] = Cytotoxicity against human HepG2 cells assessed as cellular ATP level at 30 uM after 1 day by ATPLite assay relative to control; format: cell-based; details: read-out: Activity
[5] = Cytotoxicity against human HepG2 cells assessed as cellular ATP level at 100 uM after 1 day by ATPLite assay relative to control; format: cell-based; details: read-out: Activity
Rattus norvegicus [6] = test: Inhibition of histamine-induced acid secretion in Jcl:SD rat gastric assessed as pH of gastric perfusate at 1 mg/kg, iv pretreated for 3 mins followed by histamine.2HCl treatment measured up to 2 hrs by glass electrode method (reference value: 2); format: functional
Rattus norvegicus [7] = test: Inhibition of histamine-induced acid secretion in Jcl:SD rat gastric assessed as increase in pH of gastric perfusate at 1 mg/kg, iv pretreated for 3 mins followed by histamine.2HCl treatment measured after 2 hrs by glass electrode method; format: functional, organism-based
[8] = Dissociation constant, pKa of the compound; format: physicochemical
Rattus norvegicus [9] = test: Inhibition of histamine-induced acid secretion in Jcl:SD rat gastric assessed as pH of gastric perfusate at 1 mg/kg, iv pretreated for 3 mins followed by histamine.2HCl treatment measured after 150 to 180 mins by glass electrode method (reference value: 2); format: functional
[10] = Inhibition of CYP450 (unknown origin); format: ADME; details: human
[11] = Metabolic stability of the compound
[12] = Solubility of the compound; format: physicochemical
Rattus norvegicus [13] = test: Inhibition of histamine-induced acid secretion in Jcl:SD rat gastric assessed as increase in pH of gastric perfusate at 3 mg/kg, iv pretreated for 3 mins followed by histamine.2HCl treatment measured up to 5 hrs by glass electrode method; format: functional, organism-based
Rattus norvegicus [14] = test: Inhibition of histamine-induced acid secretion in Jcl:SD rat gastric assessed as pH of gastric perfusate at 3 mg/kg, iv pretreated for 3 mins followed by histamine.2HCl treatment measured in early time point by glass electrode method (reference value: 2); format: functional
Canis familiaris [15] = test: Inhibition of histamine-induced acid secretion in dog heidenhain pouch at 3 mg/kg, po treated 1 day after and 1 to 48 hrs before histamine.2HCl treatment measured 30 mins post histamine challenge by titration method; format: functional, organism-based; details: Canis lupus familiaris
[16] = Effective permeability of the compound at 10 uM at pH 5 after 3 hrs by PAMPA; format: physicochemical; details: read-out: Peff
Canis familiaris [17] = test: Inhibition of histamine-induced acid secretion in dog heidenhain pouch at 1 mg/kg, po treated 1 day after and 1 to 48 hrs before histamine.2HCl treatment measured 30 mins post histamine challenge by titration method; format: functional, organism-based; details: Canis lupus familiaris
[18] = Effective permeability of the compound at 10 uM at pH 7.4 after 3 hrs by PAMPA; format: physicochemical; details: read-out: Peff
Rattus norvegicus [19] = test: Inhibition of histamine-induced acid secretion in Jcl:SD rat gastric assessed as pH of gastric perfusate at 0.7 mg/kg, iv pretreated for 3 mins followed by histamine.2HCl treatment measured after 5 hrs by glass electrode method (reference value: 2); format: functional
[20] = Stability of the compound under acidic condition; format: physicochemical
Rattus norvegicus [21] = test: Inhibition of histamine-induced acid secretion in po dosed rat gastric pretreated for 1 hr followed by histamine.2HCl treatment measured after 3 hrs by titration method; format: functional, organism-based
Canis familiaris [22] = test: Inhibition of histamine-induced acid secretion in dog heidenhain pouch at 0.8 mg/kg, po treated 1 day after and 1 to 48 hrs before histamine.2HCl treatment measured 30 mins post histamine challenge by titration method; format: functional; details: Canis lupus familiaris

SMILES | logD [1] | IC50 [2] | inhibition in vivo at 1 mg/kg (Rattus norvegicus [3]) | inhibition at 10 µM (hERG (KCNH2)) | viability at 24 h, 100 µM [5] | further results
CNCc1cc(-c2ccccc2)n(S(=O)(=O)c2ccccc2)c1 | 1.44 | 9.4 nM | 96% | 87.5% |  | viability at 24 h, 30 µM [4]: 53.8%
CNCc1cc(-c2ncccc2C)n(S(=O)(=O)c2cccnc2)c1 | 0.53 | 1300 nM | 5% |  | 88.7% | 
CNCc1cn(S(=O)(=O)c2cccnc2)c(-c2cccnc2F)c1Cl | 0.48 | 99 nM | 95% | 41.3% | 64.5% | 
CNCc1cc(-c2cccnc2C#N)n(S(=O)(=O)c2ccccc2)c1 | -0.32 | 120 nM | 99% | 32.9% | 82.1% | pH (Rattus norvegicus [6]): >5; inhibition (Rattus norvegicus [7]): inactive
CNCc1cc(-c2cccnc2F)n(S(=O)(=O)c2cccc(OC)c2)c1 | 0.1 | 28 nM | 92% | 72.8% | 30.6% | 
CNCc1cc(-c2cccnc2C)n(S(=O)(=O)c2cccnc2)c1 | 0.06 | 250 nM | -41% |  | 107% | 
CNCc1cc(-c2cccnc2C#N)n(S(=O)(=O)c2cccnc2)c1 | -1.29 | 530 nM | 48% | 1.9% | 85.3% | 
CNCc1cc(-c2cccnc2F)n(S(=O)(=O)c2ccc(OC)nc2)c1 | 0.24 | 40 nM | 97% | 33.1% | 47.6% | 
CNCc1cc(-c2cccc(F)c2)n(S(=O)(=O)c2ccc(C)cc2)c1 | 1.98 | 19 nM | 77% |  |  | viability at 24 h, 30 µM [4]: 0.6%; pKa [8]: 9.31
CNCc1cc(-c2ccccn2)n(S(=O)(=O)c2ccccc2)c1 | 0.28 | 120 nM |  | 48% | 91.2% | 
CNCc1cc(-c2cccnc2F)n(S(=O)(=O)c2cccnc2)c1 | -0.85 | 210 nM | 96% | 4.4% | 85.7% | pH (Rattus norvegicus [9]): 5
CNCc1cc(-c2cccnc2F)n(S(=O)(=O)c2ccsc2)c1 | -0.83 | 32 nM | 98% | 60% | 64% | 
CNCc1cc(-c2cccnc2F)n(S(=O)(=O)c2cccc(C#N)c2)c1 | -0.36 | 89 nM | 99% | 46.7% | 46.7% | 
CNCc1cc(-c2ccncc2F)n(S(=O)(=O)c2cccnc2)c1 | -0.34 | 290 nM | 48% | 18.8% | 78.8% | 
CNCc1cc(-c2ccccc2C)n(S(=O)(=O)c2ccc(C)cc2)c1 | 2.12 | 62 nM | 92% |  |  | viability at 24 h, 30 µM [4]: 0.3%
CNCc1cc(-c2cncnc2)n(S(=O)(=O)c2ccccc2)c1 | -0.4 | 410 nM |  | 24.2% | 97.5% | 
CNCc1cc(-c2cccnc2Cl)n(S(=O)(=O)c2ccccc2)c1 | -0.1 | 43 nM | 99% | 40.9% | 76.3% | 
CNCc1cc(-c2cccnc2)n(S(=O)(=O)c2ccccc2)c1 | 0.08 | 130 nM | 4% | 43.3% | 95% | inhibition (INH) [10]: Not Active; Stability [11]: Stable; solubility [12]: Soluble

SMILES | logD [1] | IC50 [2] | inhibition in vivo at 1 mg/kg (Rattus norvegicus [3]) | inhibition at 10 µM (hERG (KCNH2)) | viability at 24 h, 100 µM [5] | further results
CNCc1cc(-c2ccccc2F)n(S(=O)(=O)c2ccc(C)cc2)c1 | 1.56 | 34 nM | 91% |  |  | viability at 24 h, 30 µM [4]: 8%; pKa [8]: 9.48
CNCc1cc(-c2ccccc2)n(S(=O)(=O)c2ccc(C)cc2)c1 | 1.83 | 46 to 55 nM | 66% |  |  | viability at 24 h, 30 µM [4]: 38.6%; pKa [8]: 9.49
CNCc1cc(-c2cccnc2F)n(S(=O)(=O)c2ccoc2)c1 | -1.31 | 92 nM | 82% | 59.3% | 77.4% | 
CNCc1cc(-c2ccccc2F)n(S(=O)(=O)c2cccnc2)c1 [VONOPRAZAN] | 0.39 |  |  |  |  | pKa [8]: 9.3
Cc1c(OCC(F)(F)F)ccnc1C[S+]([O-])c1nc2ccccc2[nH]1 (stereo not drawn) [LANSOPRAZOLE] |  |  |  |  |  | inhibition (INH) [10]: Active; inhibition (Rattus norvegicus [13]): inactive; pH (Rattus norvegicus [14]): <5; inhibition (Canis familiaris [15]): Active
CNCc1cc(-c2ccc(F)cc2)n(S(=O)(=O)c2ccc(C)cc2)c1 | 2.05 | 90 nM | 86% |  |  | viability at 24 h, 30 µM [4]: 0.4%; pKa [8]: 9.4
CNCc1cc(-c2cccnc2F)n(S(=O)(=O)c2ccccn2)c1 | 0.05 | 120 nM | 81% |  | 78.6% | 
CNCc1cc(-c2cccnc2F)n(S(=O)(=O)c2cccc(F)c2)c1 | 0.23 | 33 nM | 99% | 56.2% | 65.9% | 
CNCc1cn(S(=O)(=O)c2cccnc2)c(-c2cccnc2F)c1C | -0.4 | 220 nM | 93% | 30.3% | 47.1% | 
CNCc1cc(-c2ccccc2)n(S(=O)(=O)c2ccc(OC)cc2)c1 | 1.54 | 30 nM | 95% | 89.1% |  | Papp at 3 h, 10 µM [16]: 19.8 ×10⁻⁶ cm/s; inhibition (Canis familiaris [17]): Active; viability at 24 h, 30 µM [4]: 22.1%; Papp at 3 h, 10 µM [18]: 24.6 ×10⁻⁶ cm/s; pKa [8]: 9.48
CNCc1cc(-c2ccccc2C(F)(F)F)n(S(=O)(=O)c2ccc(C)cc2)c1 | 1.94 | 88 nM | 86% |  |  | viability at 24 h, 30 µM [4]: 0.5%
CNCc1cc(-c2cccnc2F)n(S(=O)(=O)c2ccccc2)c1 | -0.09 | 26 nM | 99% | 57% | 59.9% | 
CNCc1cc(-c2cnccc2C)n(S(=O)(=O)c2cccnc2)c1 | -0.51 | 230 nM | -54% | 8.3% | 86% | 
CNCc1cc(-c2ccccc2)n(S(=O)(=O)c2cccnc2)c1 | 0.73 |  |  |  |  | 
CNCc1cc(-c2cccnc2F)n(S(=O)(=O)c2cccs2)c1 | -0.69 | 32 nM | 96% | 63% | 74.9% | 
CNCc1cc(-c2cccnc2F)n(S(=O)(=O)c2ccco2)c1 | -1.15 | 59 nM | 74% | 49.1% | 68.7% | 
CNCc1cn(S(=O)(=O)c2cccnc2)c(-c2cccnc2F)c1F | 0.04 | 49 nM | 98% | 39.8% | 100% | Papp at 3 h, 10 µM [16]: 4.7 ×10⁻⁶ cm/s; inhibition (INH) [10]: Not Active; pH (Rattus norvegicus [19]): 6; Stability [20]: Stable; inhibition (Rattus norvegicus [21]): Dose-dependent effect; Papp at 3 h, 10 µM [18]: 25.6 ×10⁻⁶ cm/s; inhibition in vivo at 0.8 mg/kg (Canis familiaris [22]): 100%; pKa [8]: 8.54
CNCc1cc(-c2cccnc2Cl)n(S(=O)(=O)c2cccnc2)c1 | -0.5 | 120 nM | 92% | 10.6% | 82.9% | 
